Legend:
[1] = PK experiments in rats: plasma compound (I) after oral dosing of prodrug; type: in vivo, Wistar rats; details: Wistar rats, oral
Protocol: Plasma was placed on water-ice following collection. Final storage at approximately −70° C.
Mobile phase B: Acetonitrile. […] Flow rate 0.5 mL/min.
The rats had unrestricted access to the diet.
Mobile phase B: Acetonitrile+0.2% formic acid. […] Flow rate 0.3 mL/min.
Dosing and blood sampling: Han Wistar rats were supplied by Envigo, UK. […] The rats received a standard laboratory diet Teklad 2014C. The rats had unrestricted access to the diet. […] Rats were given […] (Ic), 487 ag/kg compound (7), 487 ag/kg Compound (4), 674 ag/kg compound (9), 359 ag/kg A6 and 551 ag/kg A2.

[2] = biological target: T1, human 5-HT2B receptor (Homo sapiens, UniProt P41595); experiment: 5-HT2B agonist activity assay (IP1 production, HTRF, transfected CHO cells); type: cell-based
T1 construct: host or cells: CHO cells (membrane homogenates)
Protocol: Evaluation of the agonist activity of compounds (I), (Ia) and (Ib) at the human 5-HT2B receptor was performed by Eurofins/Cerep (France) measuring the compound effects on inositol monophosphate (IP1) production using the HTRF detection method. Briefly, the human 5-HT2B receptor was expressed in transfected CHO cells. The cells were suspended in a buffer containing 10 mM Hepes/NaOH (pH 7.4), 4.2 mM KCl, 146 mM NaCl, 1 mM CaCl2, 0.5 mM MgCl2, 5.5 mM glucose and 50 mM LiCl, then distributed in microplates at a density of 4100 cells/well and incubated for 30 minutes at 37° C. in the presence of buffer (basal control), test compound or reference agonist. For stimulated control measurement, separate assay wells contained 1 μM 5-HT. Following incubation, the cells were lysed and the fluorescence acceptor (fluorophen D2-labeled IP1) and fluorescence donor (anti-IP1 antibody labeled with europium cryptate) were added. After 60 minutes at room temperature, the fluorescence transfer was measured at lambda(Ex) 337 nm and lambda(Em) 620 and 665 nm using a microplate reader (Rubystar, BMG). The IP1 concentration was determined by dividing the signal measured at 665 nm by that measured at 620 nm (ratio). The results were expressed as a percent of the control response to 1 μM 5-HT. […]

[3] = man, oral dosing; cited from earlier work

T1 sequence (P41595 whole entry): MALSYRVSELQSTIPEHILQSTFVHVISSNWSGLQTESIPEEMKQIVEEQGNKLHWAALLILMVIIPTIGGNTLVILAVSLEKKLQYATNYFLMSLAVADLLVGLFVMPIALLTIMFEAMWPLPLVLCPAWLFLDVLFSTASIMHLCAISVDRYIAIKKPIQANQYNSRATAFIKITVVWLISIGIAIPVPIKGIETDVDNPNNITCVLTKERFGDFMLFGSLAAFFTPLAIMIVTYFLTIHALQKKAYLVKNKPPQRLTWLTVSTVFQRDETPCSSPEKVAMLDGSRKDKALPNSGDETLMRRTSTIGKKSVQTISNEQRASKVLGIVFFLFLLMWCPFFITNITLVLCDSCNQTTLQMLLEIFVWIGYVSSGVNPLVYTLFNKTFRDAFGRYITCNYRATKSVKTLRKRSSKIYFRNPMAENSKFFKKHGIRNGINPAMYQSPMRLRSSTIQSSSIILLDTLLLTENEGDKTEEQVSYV

Compound | plasma concentrations of compound (I) after oral dosing (in words) [1] | 5-HT2B % @ 30 uM ([2]; 30 uM, percent of control response to 1 μM 5-HT) | 5-HT2B receptor agonism (in words) [2] | oral bioavailability [3]
CCCN1CCC[C@@H]2CC3=C(CCCC3=O)C[C@H]21 [(Ia), reference compound] | early and high peak plasma concentrations of compound (I) | 58% |  | 
CCCN1CCC[C@@H]2Cc3c(ccc4c3OCO4)C[C@H]21 [(Ib), (6aR,10aR)-7-propyl-6,6a,7,8,9,10,10a,11-octahydro-[1,3]dioxolo[4′,5′:5,6]benzo[1,2-g]quinoline, reference compound] | early and high peak plasma concentrations of compound (I) |  | agonist of the 5-HT2B receptor | 
CCCc1cc2c(s1)CN[C@@H]1CCc3cc(OC(C)=O)c(OC(C)=O)cc3[C@@H]21 [Adrogolide] |  |  |  | ~4%
